Data published in PMC5220503, “Simultaneous Determination of Bergapten, Imperatorin, Notopterol, and Isoimperatorin in Rat Plasma by High Performance Liquid Chromatography with Fluorescence Detection and Its Application to Pharmacokinetic and Excretion Study after Oral Administration of Notopterygium incisum Extract” (International Journal of Analytical Chemistry, 2016).
Read-outs that look alike come from different tables or passages of the source.

What was measured:
[1] = Pharmacokinetic study in rats after oral administration of N. incisum extract (HPLC-FLD of plasma); assay type: in vivo, Sprague–Dawley rats
Method: HPLC analysis was performed on an Agilent 1100 HPLC (Agilent Technologies, USA) equipped with a quaternary pump, a degasser, an autosampler, a column thermostat compartment, and a diode array detector (DAD). An Agilent fluorescence detector was coupled to the Agilent system. Separation was carried out with a Hedera ODS column (4.6 mm × 250 mm, 5 μm) by gradient elution at a temperature of 40°C. Excitation and emission of the fluorescence detector were set to 300 nm and 490 nm, respectively. The analysis involved a constant flow rate of 1.0 mL min^−1 and an injection volume of 30 μL. The mobile phase comprised of (A) aqueous formic acid (0.1%, v/v) and (B) acetonitrile after degassing through ultrasonication using a gradient elution of 15–30% B at 0 to 10 min, 30–42% B at 10 to 20 min, 42% B at 20 to 65 min, 42–80% B at 65–70 min, and 80–90% at 70–75 min. The reequilibration time of gradient elution was 10 min. Owing to the similarity in polarity of imperatorin and notopterol, it was essential to maintain 42% of acetonitrile for 45 min to ensure that the two compounds were well separated.
To a 100 μL aliquot of plasma sample, 10 μL IS solution was added. Samples were vortex-mixed for 2 min, extracted with 1000 μL ethyl acetate, and then centrifuged for 10 min at 18000 ×g. Supernatant was transferred into another centrifuge tube and evaporated to dryness using nitrogen gas. The dried residue was reconstituted by adding 100 μL methanol. The solution was shaken and ultrasonicated for 2 min. It was then centrifuged at 18000 ×g for 10 min. A 30 μL of the solution was run with the HPLC and analysis was performed.
The PK study was carried out in accordance with the guidelines for the care and use of laboratory animals and approved by the Animal Ethics Committee of Tianjin University of Traditional Chinese Medicine. Eight male Sprague–Dawley rats weighing 180–220 g were kept at the animal center of Tianjin University of Traditional Chinese Medicine (Tianjin, China) with controlled conditions (temperature at 25 ± 2°C and relative humidity of 55 ± 5%). They were allowed free access to food and water and acclimatized for 7 days until 12 h before the experiment. According to the clinical dose used in human for each day, the rats were administered an oral dose of 4.2 g kg^−1 N. incisum extract suspended in 0.5% carboxymethylcellulose sodium salt aqueous solution (CMC-Na) and an amount of blood sample (200 μL) was collected at time 0, 0.083, 0.167, 0.25, 0.5, 0.75, 1, 1.5, 2, 3, 4, 6, 8, 12, and 24 h into heparin-pretreated tubes from the fossa orbitalis of each rat after oral administration of the extract. Blood plasma was immediately obtained by centrifuging the collected blood at 3300 ×g for 10 min and storing at −20°C until analysis.
The DAS software (Drug and Statistics 1.0, Medical College of Wannan, China), a computer program, was used in calculating the pharmacokinetic parameters after administering N. incisum extract. Bergapten, imperatorin, and isoimperatorin where analyzed using a one-compartment analysis while notopterol was processed using a two-compartment analysis based on Akaike's information criterion (AIC) estimation.

[2] = Stability of analytes in rat plasma (QC samples); assay type: in vitro ADME; details: n = 6; for Stability, Autosampler for 24 h, Mean: extracted rat plasma, autosampler 24 h; for Stability, Freeze-thaw cycles, Mean / Stability, At −80°C for 1 month, Mean: rat plasma; for Stability, Freeze-thaw cycles, Mean: three freeze/thaw cycles
Method: Mixed quality control (QC) samples at high, medium, low, and LLOQ concentrations were made by spiking appropriate mixed standard solutions into blank rat plasma, giving plasma concentration ranges of 600, 60, 12, and 4 ng mL^−1 for bergapten, 6000, 600, 120, and 40 ng mL^−1 for imperatorin, 600, 60, 12, and 4 ng mL^−1 for notopterol, and 300, 30, 6, and 2 ng mL^−1 for isoimperatorin, respectively, followed by the same sample preparation and extraction method described above.
The recovery was determined by comparing the observed peak area in extracted plasma samples to those of postprocessed spiked samples. […]

[3] = Excretion study in rat urine, feces and bile after oral N. incisum extract; assay type: in vivo, Sprague–Dawley rats; details: 0–72 h, oral 4.2 g kg^−1 N. incisum extract; for cumulative excretion in feces: rat feces; for cumulative excretion in urine: rat urine
Source text: Sixteen male Sprague–Dawley (SD) rats (200 ± 20 g) were divided into two groups (group 1 were for collecting urine and fecal samples in metabolic cages while group 2 were for collecting bile samples from the bile duct using polyethylene tubes). For group 1, the rats were orally given N. incisum extract dissolved in 0.5% CMC-Na at a dosage of 4.2 g kg^−1 and placed in metabolic cages enabling collection of urine and fecal samples separately. The urine and fecal samples were collected at time intervals of 0–4, 4–8, 8–12, 12–24, 24–36, 36–48, 48–60, and 60–72 h. For group 2, the rats were anaesthetized with chloral hydrate at a dose of 0.3 g kg^−1 administered intraperitoneally. A polyethene tube was used in cannulating the bile duct ensuring continuous flow of bile. The rats were then administered the extract at a dose of 4.2 g kg^−1 and the bile samples were then collected at different time intervals (0-1, 1-2, 2-3, 3-4, 4-5, 5-6, 6-7, 7-8, and 8-9 h). After the volumes of urine and bile obtained were measured, these samples were stored at −20°C until analysis. The preparation of the urine and bile samples were the same as the plasma sample preparation described above. On the other hand, the fecal samples after collection were dried out in a drying oven at 40°C. After measuring the weights of the fecal samples, they were crushed by a mortar to achieve a uniform powder; 0.1 g of powdered feces was measured and 1 mL methanol was added in 1.5 mL polythene tubes, mixed sufficiently for 3 min, and extracted ultrasonically for 30 min. They were then centrifuged at 18000 ×g for 10 min. Supernatants were transferred into vials for analysis using HPLC-FLD.

[4] = male, Sprague-Dawley, rat, plasma, po, 4.2 g/kg, rat plasma, oral 4.2 g kg^−1 N. incisum extract, n = 8, mean ± SD, read-out: T 1/2 (converted)
[5] = male, Sprague-Dawley, rat, plasma, po, 4.2 g/kg, rat plasma, oral 4.2 g kg^−1 N. incisum extract, n = 8, mean ± SD, read-out: T max
[6] = male, Sprague-Dawley, rat plasma, oral 4.2 g kg^−1 N. incisum extract, n = 8, mean ± SD, read-out: AUC0–∞
[7] = male, Sprague-Dawley, rat plasma, oral 4.2 g kg^−1 N. incisum extract, n = 8, mean ± SD, read-out: C max
[8] = male, Sprague-Dawley, rat plasma, oral 4.2 g kg^−1 N. incisum extract, read-out: total drug exposure in rats in over 24 h, AUC0–24
[9] = rat plasma, oral 4.2 g kg^−1 N. incisum extract, n = 8, mean ± SD
[10] = high QC (600, 6000, 600, 300 ng mL^−1)
[11] = low QC (12, 120, 12, 6 ng mL^−1)
[12] = medium QC (60, 600, 60, 30 ng mL^−1)
[13] = male, Sprague-Dawley, rat, in vivo, po, 4.2 g/kg

Structure (SMILES)	half-life [1, 4]	Tmax [1, 5]	AUC(0-inf) [1, 6]	Cmax [1, 7]	AUC(0-t) [1, 8]	T 1/2 [1, 9]	T max [1, 9]	cumulative excretion in feces [3]	cumulative excretion in urine [3]	also measured
COc1c2ccoc2cc2oc(=O)ccc12 [Bergapten, bergapten]	12 h	~3 h	1960 ± 2490 ng·h/mL	184 ± 171 ng/mL	1640 ± 2490 ng·h/mL	12.8 ± 22.2 h	3.06 ± 3.71 h	about 80%		Stability, Autosampler for 24 h, Mean ([2]; LLOQ QC (4, 40, 4, 2 ng mL^−1)): 100%; Stability, Autosampler for 24 h, Mean [2, 10]: 88.9%; Stability, Autosampler for 24 h, Mean [2, 11]: 101%; Stability, Autosampler for 24 h, Mean [2, 12]: 115%; Stability, Freeze-thaw cycles, Mean ([2]; LLOQ QC (4, 40, 4, 2 ng mL^−1)): 106%; Stability, Freeze-thaw cycles, Mean [2, 10]: 85.1%; Stability, Freeze-thaw cycles, Mean [2, 11]: 91.1%; Stability, Freeze-thaw cycles, Mean [2, 12]: 83.6%; Stability, At −80°C for 1 month, Mean ([2]; LLOQ QC (4, 40, 4, 2 ng mL^−1)): 80.5%; Stability, At −80°C for 1 month, Mean [2, 10]: 112%; Stability, At −80°C for 1 month, Mean [2, 11]: 91.1%; Stability, At −80°C for 1 month, Mean [2, 12]: 104%
CC(C)=CCOc1c2occc2cc2ccc(=O)oc12 [Imperatorin, imperatorin]										AUC(0-inf) [1, 13]: 13900 ± 13900 ng·h/mL; AUC(0-t) [1, 13]: 11000 ± 12000 ng·h/mL; Cmax [1, 13]: 1670 ± 1500 ng/mL; T 1/2 [1, 13]: 4.99 ± 3.02 h; T max [1, 13]: 1.65 ± 1.80 h; half-life ([1]; male, Sprague-Dawley, rat, in vivo, po, 4.2 g/kg, T 1/2): ≤ 6 h; Tmax ([1]; male, Sprague-Dawley, rat, in vivo, po, 4.2 g/kg, T max): < 2 h
CC(C)=CCOc1c2ccoc2cc2oc(=O)ccc12 [Isoimperatorin, isoimperatorin]	≤ 6 h	< 2 h	2120 ± 2870 ng·h/mL	145 ± 75.9 ng/mL	830 ± 762 ng·h/mL	5.62 ± 4.06 h	1.59 ± 0.97 h	7.7284 + 2.2114%	0.0084 + 0.0016%	
CC(C)=CC(O)C/C(C)=C/COc1c2ccoc2cc2oc(=O)ccc12 (stereo not shown) [Notopterol, notopterol]	≤ 6 h		296 ± 242 ng·h/mL	23.3 ± 6.87 ng/mL	102 ± 34.8 ng·h/mL	3.18 ± 3.44 h	0.45 ± 0.35 h	54.1083 + 4.4359%	0.1171 + 0.0096%	T max ([1]; rat plasma, oral 4.2 g kg^−1 N. incisum extract, n = 8, mean ± SD, listed as notopterol): below 2 h
COc1ccc2ccc(=O)oc2c1CC=C(C)C [osthole, reference compound]										detection in rat plasma ([1]; after oral 4.2 g kg^−1 N. incisum extract): not detected
